The test system of test [1] is diabetic renal disease model rat. Briefly: in vivo drug efficacy in diabetic renal disease model rat (single kidney removal, saline). On the set-up: species or system SDT.Cg-Leprfa/JttJcl (SDT-fatty rat). The following applies: 8 weeks after the start of administration. As to the method:
A diabetic renal disease model was created by extracting the unilateral kidneys of male SDT.Cg-Leprfa/JttJcl (SDT-fatty/Jcl, CLEA Japan) rats, a type 2 diabetes model, and then giving saline. The in vivo drug efficacy of the present compound on diabetic renal disease was evaluated in this model.
Male SDT.Cg-Leprfa/JttJcl (SDT-fatty rat) aged 4 weeks was purchased from CLEA Japan, and subjected to experiments. The animals were fed ad libitum with Purina5008 (Japan SLC) from the time of arrival, and watered ad libitum. Water was given from the arrival and until 1 week from single kidney removal, and a 0.2 w/v% NaCl solution was given 1 week after single kidney removal.
After acclimation breeding, the body weight was measured, and buprenorphine was subcutaneously administered at a dose of 0.01 mg/kg under inhalation anesthesia with isoflurane (Mayran). After removing hair from the right abdomen of the rat, the right abdomen was disinfected with ethanol and isodine for disinfection and incised to expose the right kidney. The renal artery and vein was ligated with a suture to stop the blood flow, the right kidney was totally removed, and the incision was sutured. The following day, analgesic buprenorphine was administered subcutaneously at a dose of 0.01 mg/kg.
Grouping was performed 3 weeks after single kidney removal. The mice were divided into groups so that the average of the above parameters was almost equal between the groups on the basis of body weight, serum urea nitrogen (BUN), serum creatinine (S-CRE), serum total cholesterol (T-CHO), blood glucose level (GLU), neutral fat (TG), urinary protein (U-TP), urinary albumin (U-ALB), and creatinine clearance (CCr).
All of the compounds of Examples 25-7, 10, 11 and 12 were orally administered once a day for 8 weeks in combination with losartan (30 mg/kg), a renin angiotensin system inhibitor, and canagliflozin (10 mg/kg), a glucose co-transporter inhibitor. The compounds of Examples 25-7, 10, 11 and 12, and losartan were each dissolved in water for injection (Otsuka Pharmaceutical), and canagliflozin was suspended in a 0.5% methyl cellulose solution (Fujifilm Wako Pure Chemical Corporation) to prepare an administration solution. In the Control-1 group, water for injection which is a vehicle of losartan or the compound of Examples 25-7, 10, 11 or 12 was orally administered at 5 mL/kg, and a 0.5% methylcellulose solution which is a vehicle of canagliflozin was orally administered at 2.5 mL/kg once a day for 8 weeks. In the Control-2 group, losartan (30 mg/kg) dissolved in water for injection was orally administered at an administration volume of 2.5 mL/kg, canagliflozin (10 mg/kg) suspended in a 0.5% methyl cellulose solution was orally administered at an administration volume of 2.5 mL/kg, and water for injection which is a vehicle of the compounds of Examples 25-7, 10, 11 and 12 was orally administered at an administration volume of 2.5 mL/kg once a day for 8 weeks. The administration dose is described in Table 8.
Blood was collected by puncturing the tail vein of the rat with an injection needle. Blood was collected in a tube for serum separation (BD Microtainer) and centrifuged to obtain serum. Urine was collected for 24 hours in a metabolic cage for rat under conditions in which a solid feed and water can be freely taken. The obtained urine sample was centrifuged, and the supernatant was subjected to measurement. The concentrations of BUN, S-CRE, T-CHO, TG, U-ALB, U-TP, GLU and U-CRE were measured by an automatic analyzer Hitachi 7180 (Hitachi High-Tech).

The target in a further test is T1, EP1 (Homo sapiens, UniProt P34995).
T1 construct: expressed in transfected cells; host or cells: CHO (EP1-CHO)
T1 sequence (P34995 1-402): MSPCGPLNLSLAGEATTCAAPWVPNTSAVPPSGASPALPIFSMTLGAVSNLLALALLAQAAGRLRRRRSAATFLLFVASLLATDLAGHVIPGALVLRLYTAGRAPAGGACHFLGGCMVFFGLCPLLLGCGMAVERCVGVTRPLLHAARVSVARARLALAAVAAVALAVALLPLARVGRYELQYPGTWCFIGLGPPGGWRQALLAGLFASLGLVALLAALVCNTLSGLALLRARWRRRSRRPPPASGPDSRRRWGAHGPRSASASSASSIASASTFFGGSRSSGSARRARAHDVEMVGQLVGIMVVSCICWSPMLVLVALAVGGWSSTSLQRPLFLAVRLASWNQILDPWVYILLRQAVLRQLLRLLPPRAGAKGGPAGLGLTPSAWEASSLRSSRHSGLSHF
In words: agonist activity on human EP1 receptor (intracellular calcium concentration, EP1-CHO cells). The format is cell-based. An outline of the steps:
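Calcium 6 dye loaded 1 h at room temperature in HBSS with 1% human serum albumin, 2 µmol/L indomethacin, 2.5 mmol/L probenecid, pH 7.4; agonists then added at various concentrations. Intracellular calcium read by fluorescence (ex 480/em 540 nm) in CHO cells expressing human EP1 or Chem1 cells expressing human EP3.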
In general terms: A change in cytosolic calcium serves as a functional read-out for many receptors and channels.

The structures appear in SMILES notation.

For `Cc1c(C(=O)O)ccc2c1O[C@H]1C[C@@H](O)[C@H](/C=C/C[C@@](C)(O)CCCC(F)(F)F)[C@H]1CC2` [Example 12, (1R,2R,3aS,10aR)-2-hydroxy-5-methyl-1-[(1E,4S)-8,8,8-trifluoro-4-hydroxy-4-methyl-1-octen-1-yl]-2,3,3a,9,10,10a-hexahydro-1H-benzo[b]cyclopenta[f]oxepine-6-carboxylic acid], the Serum creatinine mean was 0.51 mg/dL in test [1] (0.01 mg/kg orally once a day for 8 weeks in combination with losartan (30 mg/kg) and canagliflozin (10 mg/kg)); 0.45 mg/dL in test [1] (0.03 mg/kg orally once a day for 8 weeks in combination with losartan (30 mg/kg) and canagliflozin (10 mg/kg)). The EC50 – broadly, the midpoint of the concentration-response curve – on EP1 worked out at 3.5 µM.
As to `CC(C)(c1ccccc1)C(O)/C=C/[C@H]1CC[C@@H]2Oc3c(ccc(C(=O)O)c3F)CC[C@@H]21` (stereo partly drawn) [Example 25-7, (1R,3aS,10aR)-5-fluoro-1-[(1E,3ξ)-3-hydroxy-4-methyl-4-phenyl-1-penten-1-yl]-2,3,3a,9,10,10a-hexahydro-1H-benzo[b]cyclopenta[f]oxepine-6-carboxylic acid], the Serum creatinine mean in test [1] (0.1 mg/kg orally once a day for 8 weeks in combination with losartan (30 mg/kg) and canagliflozin (10 mg/kg)) is given as 0.45 mg/dL. For the same compound, the EC50 on EP1 is > 10 µM.

The values above are taken from patent EP4682141A1, “TRICYCLIC COMPOUND” (ONO Pharmaceutical Co., Ltd., priority 2023, dated 2024).
